Experimental data taken from patent publication US20250340939A1 (priority 2021, published 2025).
Entries after “also recorded” stand apart in the source; their conditions may differ.

Legend:
[1] = tested on: human total RNA; experiment: MST of 16S probe / Dox with human total RNA (specificity); assay type: binding; conditions: 100 μM Dox with 16S1^Cy5; blue mode
Description: (§1) In order to assess the effect of human RNA presence and Dox post-hybridization on signal response, 16S1^Cy5 was incubated with increasing concentrations of bacterial or human total RNA at 71° C. for 2 hours. Equal amounts were then taken for post-hybridization incubation with Dox or hybridization buffer as a control.
In order to compare signal sensitivity in the presence and absence of Dox, ΔFnorm[‰] values of human RNA were subtracted (ΔΔFnorm), and the ratios of ΔΔFnorm[‰] were compared.

[2] = tested on: S-gene RNA (SARS-CoV2); assay type: binding
[3] = MST of Dox alone in hybridization solution; assay type: physicochemical; conditions: 3.125-100 μM Dox; no RNA, no probes; blue mode
Description: In order to investigate the possibility that Dox monomers interact with each other, thereby causing Dox to migrate into the heating zone particularly at high Dox concentrations, Dox was incubated in hybridization solution without the presence of either S-gene RNA or the DNA probes.

[4] = tested on: 16S rRNA (E. coli); experiment: MST of Cy5 probes hybridized with total bacterial RNA; assay type: binding
Description: For bacterial RNA extraction, DH5α E. coli cells transfected with pcDNA3.1+ plasmid were grown overnight in LB medium containing 100 μg/ml ampicillin. The concentration of bacterial cells was determined according to OD at 600 nm, and ˜7·10^8 cells were taken for RNA extraction. 1 volume of bacterial culture was mixed with 2 volumes of RNAprotect® Bacteria Reagent (QIAGEN), vortexed for 5 seconds and incubated for 5 minutes at room temperature. The sample was then centrifuged for 10 minutes at 5,000×g at room temperature. After discarding supernatant, the pellet was resuspended in 100 μl TE buffer (10 mM Tris-HCl, 1 mM EDTA, pH 8) containing 1 mg/ml lysozyme. The samples were vortexed for 5 seconds, and then incubated at room temperature for 10 minutes with vortexing every 2 minutes. 1 ml TRIzol™ reagent was added to the sample. The sample was incubated at room temperature for 5 minutes, and then RNA extraction was performed as described hereinabove.
RNA was extracted from a sample, and after extraction, the RNA pellet was solubilized and hybridized with a specific fluorescently labeled DNA probe in a hybridization solution (as schematically depicted in FIG. 1). After hybridization, the hybridized sample was loaded into an MST capillary and inserted into a Monolith™ MST instrument (NanoTemper Technologies GmbH, Germany). This instrument included a blue mode (493 nm excitation, […]) and red mode ([…], 670 nm emission) for detection, and an I.R laser (1475 nm+/−15 nm) for heating. The intensities for both fluorescence detection (LED) and IR laser are adjustable, in a range of 0%-100%, wherein the temperature gradient generated has a temperature difference of up to about 2-8° C. Thermophoretic force was induced by infrared laser after 1 second, and maintained for 2 seconds, for a total of a 3 second measurement window (measurement time may optionally be further reduced to 2 seconds using current available MST instruments).
For RNA titration measurements, the extracted RNA solution was diluted to X2 and a serial dilution was prepared in water. Hybridization solutions were prepared as described herein, were X1 solution consisted of SSC buffer X1, 0.05% TWEEN™ 20 surfactant, and 1% formamide unless indicated otherwise. Fluorescently labeled probes were diluted from a 100 μM stock to 1:2400 in hybridization solution X2, denatured for 5 minutes at 100° C. and then incubated on ice for 5 minutes. If a mixture of uniformly labeled probes was prepared, the probes were diluted to a 1:1200 dilution in water and then diluted to 1:2400 with hybridization solution X4 (1:1/number of probes) to create equal molarity of the fluorescent dye. The probe solution was combined with the titration series in a 1:1 (v/v) ratio (10 μL total volume) and allowed to hybridize at a defined temperature for a given time as described. If post-hybridization with intercalating agents (ICA), doxorubicin or Midori™ Green, was performed, the samples were combined with ICA X5 solution 4:1 (v:v) ratio, 8 μL and 2 μL respectively. For cell based measurements, after extraction, the RNA pellet was solubilized and hybridized with a specific fluorescently labeled DNA probe in a hybridization solution (as schematically depicted in FIG. 1).
In order to determine the optimal hybridization temperature, one of the designed probes (16S1^Cy5) was incubated with increasing concentrations of bacterial RNA at different temperatures for 10 minutes. MST measurements were then performed using the red wavelength acquisition mode.
as §1, with “control. […]” for “control.”

[5] = tested on: E. coli; experiment: Antimicrobial susceptibility testing (AST) with MST read-out of 16S rRNA; design: dose or concentration left out as unconfirmed; conditions: 5*10^5 bacteria; 90-150 minutes
Description: Kanamycin resistant E. coli bacteria, DH5α or BL-21, were maintained as frozen stocks at −80° C. in homemade L.B (Bacto tryptone 10 g/L, NaCl 10 g/L Bacto yest extract 5 g/L in autoclavable DDW) supplemented with 50% Glycerol as cryoprotective agent. Cultures were started from frozen stocks and cultivated at 37° C. overnight, at the presence of 30 μg/ml Kanamycin. After starter growth, bacteria amount was measured using optical density for further experiments.
Bacteria was grown as described in “bacterial growth” section and adjusted to 0.1 O.D for a second growing step after overnight starter. When reached 0.6 O.D, bacterial concentration adjusted to 7.143*10^5 bacteria/ml and 0.7 ml (5*10^5 bacteria) were divided to slit-cap Eppendorf tubes containing Ampicillin antibiotic or water as control. The tubes were placed in a temperature control thermo-mixer for further growth at 37° C. At an indicated time-point, tubes were taken out combined with RNA protect reagent for RNA extraction as previously described.

| SMILES | Dox signal dependence on RNA concentration [1] | effect of Dox on slope of S^Cy5 linear regression (analytical sensitivity) ([2]; 100 μM Dox vs 0, 1 or 10 μM Dox) | effect of S-gene RNA concentration on Dox signal without DNA probe ([2]; 100 μM Dox, no S^Cy5 probe, blue mode) | Dox fluorescence dependence on S-gene RNA concentration ([2]; 1, 10 or 100 μM Dox, S^Cy5 present, blue mode) | effect of Dox on initial fluorescence intensity of S^Cy5 ([2]; 1, 10 or 100 μM Dox, dose-dependent, prior to temperature gradient) | degree of Dox migration into the heating zone [3] | effect of Dox on signal sensitivity of 16S probes ([4]; 100 μM Dox post-hybridization) | Dox signal dependence on RNA concentration ([4]; 100 μM Dox with 16S1^Cy5, blue mode) | growth of E. coli bacteria in the presence of antibiotic [5] |
| --- | --- | --- | --- | --- | --- | --- | --- | --- | --- |
| COc1cccc2c1C(=O)c1c(O)c3c(c(O)c1C2=O)C[C@@](O)(C(=O)CO)C[C@@H]3O[C@H]1C[C@H](N)[C@H](O)[C@H](C)O1 [Dox, doxorubicin, reference compound] | dependent on the concentrations of both human RNA and bacterial RNA | steeper slope | did not noticeably affect the change in signal | dependent on S-gene RNA concentration | decreased the initial fluorescence intensity values | correlated to Dox concentration | increased signal sensitivity; also recorded: enhanced signal sensitivity to a considerable extent | dependent on the concentrations of both human RNA and bacterial RNA |  |
| CC1(C)S[C@@H]2[C@H](NC(=O)[C@H](N)c3ccccc3)C(=O)N2[C@H]1C(=O)O [Ampicillin] |  |  |  |  |  |  |  |  | no growth was observed |
